Results reported in article PMC4433340 (PLoS Neglected Tropical Diseases, 2015).
Like-named read-outs stand apart in the source and are kept apart here.

Legend:
Trypomastigotes Dm28c = experiment: Parasite viability by MTT reduction assay, trypomastigotes; format: cell-based; details: Trypanosoma cruzi, read-out: IC50, cellular viability, Trypomastigotes Dm28c
Procedure: T. cruzi trypomastigotes (Dm28c clone) from our collection, were obtained from infected EA.hy926 cells. Cells were exposed to trypomastigotes (Dm28c clone) at a multiplicity of infection (MOI) of 5. Trypomastigotes were allowed to infect cells for 24 hours, after which the supernatant was removed and fresh medium was added. Trypomastigotes were released from EA.hy926 cells after four days of infection. The parasites were harvested and collected for viability assays and further cell infections.
(§1) The effect of the drug on all cells and parasite viability was evaluated through the tetrazolium salt (MTT, Sigma-Aldrich) reduction assay as described. Drugs at concentrations ranging from 1 to 20 μM, dissolved in DMSO at a 0.025% v/v final concentration, were applied to 2.5x10^5 cells/mL or 10^6 parasite/mL culture medium. Cultures were incubated for 24 hours before adding MTT for 4 hours. The plates were incubated overnight with 10% SDS w/v in 0.01 M HCl at 37°C, and optical density (OD) was determined using a microplate reader (Labsystems Multiskan MS, Finland) at 570 nm. Under these conditions, the OD was directly proportional to viable cell number per well. All of the experiments were performed at least three times, and the data are shown as the means and their standard deviations from triplicate cultures.

HL-60 cells = experiment: Cell viability by MTT reduction assay, HL-60 cells; format: cell-based; details: Homo sapiens, 24 hours incubation, mean ± SD, n = 3, read-out: IC50, cellular viability, HL-60 cells
Procedure: HL-60 cells (ATCC CCL240) are a promyelocytic cell line that was derived by S.J. Collins et al. Peripheral blood leukocytes were obtained by leukapheresis from a person with acute promyelocytic leukemia. The cell line was cultured with Iscove's Modified Dulbecco's Medium plus 10% v/v FBS.
as §1, with “Drugs at concentrations ranging from 1 to 20 μM, dissolved in DMSO at a 0.025% v/v final concentration, were applied to 2.5x10^5 cells/mL or 10^6 parasite/mL culture medium.” left out

[1] = system: intracellular T. cruzi amastigotes in EA.hy926 cells; experiment: DAPI staining and intracellular amastigote quantification; format: cell-based, Trypanosoma cruzi; details: 5 μM simvastatin or 20 μM benznidazole for 24 hours before infection; counted after 72 hours
Procedure: 2x10^4 EA.hy926 cells/slide were seeded in Lab-Tek II Chamber Slides for 12 h. […] Then, the cells were washed and fixed in cold methanol (70%) overnight. The fixed cells were then washed, and 1 mL PBS (pH 7.4) was added. DNA was stained with DAPI (NucBlue; Molecular Probes, USA) following the manufacturer's instructions. The cells were photographed using a Nikon Eclipse 400 fluorescence microscope using 358 nm (excitation) and 461 nm (emission) wavelengths. In total, ten pictures were obtained per well, and each picture was counted using MATLAB software.
In Fig 3, total E-selectin (Fig 3A), ICAM-1 (Fig 3B) and VCAM-1 (Fig 3C) protein expression analyses are shown. […] To evaluate parasite load, DAPI-stained cells were photographed (20.12 ± 3.8 cells per photograph, 20 photographs per experimental condition; infected to uninfected cells ratio of 1:5) and the number of intracellular amastigotes was determined by manual count.

[2] = system: 15-epi-lipoxin A4 production by EA.hy926 cells; experiment: 15-epi-lipoxin A4 determination by ELISA in culture supernatants; format: cell-based, human; details: ELISA (Fig 7A); for 15-epi-LXA4 production in T. cruzi-infected endothelial cells: EA.hy926 infected 16 hours, drug added afterwards
Procedure: 8x10^5 EA.hy926 cells/well were cultured in 6-well plates (IMDM 10% SFB). […] 15-epi-LXA4 determination was performed by:
• ELISA assay: the supernatant from the cell cultures was assayed using a 15-epi-LXA4 BioAssay ELISA Kit (USBiological, USA) following manufacturer’s instructions. • AxION DSA—TOF MS determination: To determine 15-epi-lipoxin A4 levels in EAhy926 cell culture supernatants, an AxION Direct Sample Analysis (DSA) that was integrated with an AxION 2 time-of-flight (TOF) mass spectrometer (PerkinElmer, Shelton, CT, USA) was employed. For extraction, all of the samples were loaded onto a solid phase extraction and eluted with 1 mL chloroform three times successively. Then, the samples were transferred into a clean tube, and the chloroform in the samples was evaporated in a water bath. Finally, the samples were resuspended in 100 μL ethanol, and 10 μL were pipetted onto a stainless mesh. For the calibration curve, 15-epi-lipoxin A4 (cat#90415, Cayman Chemical, USA) was diluted in PBS to achieve different final concentrations (see S1 Fig). From each tube, 10 μL was pipetted onto a stainless mesh, and DSA—TOF determination was performed. The AxION DSA conditions were as follows: 5 μA corona current, 250°C heater temperature, 80 psi auxiliary gas (N2) pressure, 4 L/min drying gas (N2) flow, and 25°C drying gas (N2) temperature. […] Mass spectra were acquired with a mass range of 100–1000 m/z and an acquisition rate of 2 spectra/sec. To maintain mass accuracy, […] lock mass ions were used (m/z 119.0400, m/z 556.0000 and m/z 805.9900). All of the samples were analyzed for only 10 sec. The standards used were 15-epi-lipoxin A4 (cat#90415, Cayman Chemical,) and 5(S),6(R)-Lipoxin A4 methyl ester (cat#10033, Cayman Chemical) as an internal standard. These were confirmed in seconds by accurate mass and isotopic distribution of parent and fragment ions using DSA/TOF and AxION software, and compound identification was performed using the standards. All of the samples were analyzed in triplicate.

Row | Structure (SMILES) | IC50 (Trypomastigotes Dm28c; MTT assay, 24 hours incubation, mean ± SD, n = 3) [µM] | IC50 (HL-60 cells) [µM] | Intracellular T. cruzi (amastigote) load [1] | 15-epi-LXA4 levels with drug alone ([2]; 5 μM simvastatin, EA.hy926 without T. cruzi) | 15-epi-LXA4 production in T. cruzi-infected endothelial cells [2] | IC50 (Trypomastigotes Dm28c; 24 h) [µM]
1 | CCC(C)(C)C(=O)O[C@H]1C[C@@H](C)C=C2C=C[C@H](C)[C@H](CC[C@@H]3C[C@@H](O)CC(=O)O3)[C@H]21 [Simvastatin] | 4.2 ± 1.06 | 68 ± 1.11 | not affected | rose slightly | induced 15-epi-LXA4 | –
2 | O=C(Cn1ccnc1[N+](=O)[O-])NCc1ccccc1 [Benznidazole] | – | < 100 | not affected | – | did not induce | 20.8 ± 1.35
